According to ChEMBL document CHEMBL4342418, “1,2,3-Triazole-containing hybrids as potential anticancer agents: Current developments, action mechanisms and structure-activity relationships” (Eur J Med Chem, 2019):
Each block holds one molecule with its values, some of them ahead of it.

How the values were obtained:
A549 [1] = assay: Antiproliferative activity against human A549 cells assessed as reduction in cell viability after 72 hrs by MTT assay; assay type: functional, cell-based; settings: A549, 72 h
A549/TR = assay: Antiproliferative activity against human A549/TR cells assessed as reduction in cell viability after 72 hrs by MTT assay; assay type: functional, cell-based
A549/CDDP = assay: Antiproliferative activity against human A549/CDDP cells assessed as reduction in cell viability after 72 hrs by MTT assay; assay type: functional, cell-based
HepG2 [2] = assay: Antiproliferative activity against human HepG2 cells assessed as reduction in cell viability after 72 hrs by MTT assay; assay type: functional, cell-based; settings: HepG2, 72 h
HCT-116 = assay: Antiproliferative activity against human HCT116 cells assessed as reduction in cell viability after 72 hrs by MTT assay; assay type: functional, cell-based; settings: HCT-116, 72 h
U-251 = assay: Antiproliferative activity against human U251 cells assessed as reduction in cell viability after 72 hrs by MTT assay; assay type: functional, cell-based; settings: U-251, 72 h
A549 [3] = assay: Antitumour activity against human A549 cells xenografted in Kunming mice assessed as tumour growth inhibition at 5 mg/kg, iv bid administered and measured after week relative to control; assay type: functional; settings: Mus musculus, read-out: TGI
A549 [4] = assay: Antitumour activity against human A549 cells xenografted in Kunming mice assessed as tumour growth inhibition at 10 mg/kg, iv bid administered and measured after week hrs relative to control; assay type: functional; settings: Mus musculus, read-out: TGI
A549 [5] = assay: Antitumour activity against human A549 cells xenografted in Kunming mice assessed as tumour growth inhibition at 20 mg/kg, iv bid administered and measured after week relative to control; assay type: functional; settings: Mus musculus, read-out: TGI
A549 [6] = assay: Antitumour activity against human A549 cells xenografted in Kunming mice assessed as tumour growth inhibition at 50 mg/kg, po administered and measured after week relative to control; assay type: functional; settings: Mus musculus, read-out: TGI
MCF7 [7] = assay: cells; assay type: functional, cell-based; settings: Homo sapiens
Description: Antiproliferative activity against human MCF7 cells by MTT assay

A549 [8] = assay: cells; assay type: functional, cell-based; settings: Homo sapiens
Description: Antiproliferative activity against human A549 cells by MTT assay

HeLa [9] = assay: Antiproliferative activity against human HeLa cells by MTT assay; assay type: functional, cell-based
DU-145 [10] = assay: Antiproliferative activity against human DU145 cells by MTT assay; assay type: functional, cell-based
B16 = assay: Antiproliferative activity against mouse B16 cells by MTT assay; assay type: functional, cell-based
A549 [11] = assay: Antiproliferative activity against human A549 cells assessed as reduction in cell viability after 48 hrs by MTT assay; assay type: functional, cell-based; settings: A549, 48 h
HL-60 = assay: Antiproliferative activity against human HL60 cells assessed as reduction in cell viability after 48 hrs by MTT assay; assay type: functional, cell-based; settings: HL-60, 48 h
SW480 [12] = assay: Antiproliferative activity against human SW480 cells assessed as reduction in cell viability after 48 hrs by MTT assay; assay type: functional, cell-based; settings: SW480, 48 h
[13] = Antiproliferative activity against human SMCC7721 cells assessed as reduction in cell viability after 48 hrs by MTT assay; assay type: functional, cell-based
A549 [14] = assay: Potency index, ratio of etoposide IC50 to test compound IC50 for antiproliferative activity against human A549 cells; assay type: functional
MCF7 [15] = assay: Potency index, ratio of etoposide IC50 to test compound IC50 for antiproliferative activity against human MCF7 cells; assay type: functional
SW480 [16] = assay: Potency index, ratio of etoposide IC50 to test compound IC50 for antiproliferative activity against human SW480 cells; assay type: functional
[17] = Potency index, ratio of etoposide IC50 to test compound IC50 for antiproliferative activity against human […] cells; assay type: functional
A549 [18] = assay: Potency index, ratio of cisplatin IC50 to test compound IC50 for antiproliferative activity against human A549 cells; assay type: functional
MCF7 [19] = assay: Potency index, ratio of cisplatin IC50 to test compound IC50 for antiproliferative activity against human MCF7 cells; assay type: functional
SW480 [20] = assay: Potency index, ratio of cisplatin IC50 to test compound IC50 for antiproliferative activity against human SW480 cells; assay type: functional
[21] = Potency index, ratio of cisplatin IC50 to test compound IC50 for antiproliferative activity against human […] cells; assay type: functional
HepG2 [22] = assay: Antiproliferative activity against human HepG2 cells by MTT assay; assay type: functional, cell-based
NIH3T3 = assay: Antiproliferative activity against mouse NIH/3T3 cells by MTT assay; assay type: functional, cell-based
HeLa [23] = assay: Potency index, ratio of podophyllotoxin IC50 to test compound IC50 for antiproliferative activity against human HeLa cells; assay type: functional
MCF7 [24] = assay: Potency index, ratio of podophyllotoxin IC50 to test compound IC50 for antiproliferative activity against human MCF7 cells; assay type: functional
DU-145 [25] = assay: Potency index, ratio of podophyllotoxin IC50 to test compound IC50 for antiproliferative activity against human DU145 cells; assay type: functional
A549 [26] = assay: Potency index, ratio of podophyllotoxin IC50 to test compound IC50 for antiproliferative activity against human A549 cells; assay type: functional
HepG2 [27] = assay: Potency index, ratio of podophyllotoxin IC50 to test compound IC50 for antiproliferative activity against human HepG2 cells; assay type: functional
MCF7 [28] = assay: Antiproliferative activity against human MCF7 cells assessed as reduction in cell viability after 48 hrs by MTT assay; assay type: functional, cell-based; settings: MCF7, 48 h
T47D = assay: Antiproliferative activity against human T47D cells assessed as reduction in cell viability after 48 hrs by MTT assay; assay type: functional, cell-based
SNB-19 = assay: Antiproliferative activity against human SNB19 cells assessed as reduction in cell viability after 48 hrs by MTT assay; assay type: functional, cell-based; settings: SNB-19, 48 h

Compound: CCc1ccc(-c2cn(CCNC3=C(C)C(=O)c4ccccc4C3=O)nn2)cc1
IC50 (MCF7 [7]): 8.02 to 26.1 µM
IC50 (A549 [8]): 8.02 to 26.1 µM
IC50 (HeLa [9]): 8.02 to 26.1 µM
IC50 (DU-145 [10]): 8.02 to 26.1 µM
IC50 (B16): 8.02 to 26.1 µM

Compound: COc1cc([C@@H]2c3cc4c(cc3[C@H](NC(=O)c3cn(-c5ccc(Cl)cc5)nn3)[C@H]3COC(=O)[C@H]23)OCO4)cc(OC)c1OC
IC50 (MCF7 [7]): 0.7 to 1.21 µM
IC50 (HepG2 [22]): 0.7 to 1.21 µM
IC50 (A549 [8]): 0.7 to 1.21 µM
IC50 (HeLa [9]): 0.7 to 1.21 µM
IC50 (DU-145 [10]): 0.7 to 1.21 µM
IC50 (NIH3T3): 0.7 to 1.21 µM
Ratio IC50 (HeLa [23]): 3.8 - 8.5
Ratio IC50 (MCF7 [24]): 3.8 - 8.5
Ratio IC50 (DU-145 [25]): 3.8 - 8.5
Ratio IC50 (A549 [26]): 3.8 - 8.5
Ratio IC50 (HepG2 [27]): 3.8 - 8.5

Compound: C=C(C)[C@@H]1CC[C@]2(OC(=O)c3cn(Cc4ccc(F)cc4)nn3)CC[C@]3(C)[C@H](CC[C@@H]4[C@@]5(C)CC[C@H](OC(=O)c6cn(Cc7ccc(F)cc7)nn6)C(C)(C)[C@@H]5CC[C@]43C)[C@@H]12
IC50 (MCF7 [28]): 0.05 to 0.09 µM
IC50 (T47D): 0.05 to 0.09 µM
IC50 (SNB-19): 0.05 to 0.09 µM

Second part, led by results:

IC50 (A549 [1]): 0.31 to 3.75 µM
IC50 (A549/TR): 0.31 to 3.75 µM
IC50 (A549/CDDP): 0.31 to 3.75 µM
IC50 (HepG2 [2]): 0.31 to 3.75 µM
IC50 (HCT-116): 0.31 to 3.75 µM
IC50 (U-251): 0.31 to 3.75 µM
Compound: CC(C)=CCC12OC(C)(C)C3CC(C=C4C(=O)c5c(OCc6cn(CCN7CCOCC7)nn6)cccc5OC431)C2=O (stereo unspecified)
inhibition in vivo at 5 mg/kg (A549 [3]): 30.9%
inhibition in vivo at 10 mg/kg (A549 [4]): 52.2%
inhibition in vivo at 20 mg/kg (A549 [5]): 71.3%
inhibition in vivo at 50 mg/kg (A549 [6]): 66.4%

IC50 (A549 [11]): 0.43 to 3.5 µM
IC50 (HL-60): 0.43 to 3.5 µM
IC50 (SW480 [12]): 0.43 to 3.5 µM
Compound: CCCC(=O)OC[C@H]1O[C@@H](OC(COCc2cn([C@H]3c4cc5c(cc4[C@@H](c4cc(OC)c(OC)c(OC)c4)[C@H]4C(=O)OC[C@@H]43)OCO5)nn2)COCc2cn([C@H]3c4cc5c(cc4[C@@H](c4cc(OC)c(OC)c(OC)c4)[C@H]4C(=O)OC[C@@H]43)OCO5)nn2)[C@H](OC(=O)CCC)[C@@H](OC(=O)CCC)[C@@H]1OC(=O)CCC (stereo partly specified)
IC50 [13]: 0.43 to 3.5 µM
Ratio IC50 (A549 [14]): 2.8 - 21.3
Ratio IC50 (MCF7 [15]): 2.8 - 21.3
Ratio IC50 (SW480 [16]): 2.8 - 21.3
Ratio IC50 [17]: 2.8 - 21.3
Ratio IC50 (A549 [18]): 2.8 - 21.3
Ratio IC50 (MCF7 [19]): 2.8 - 21.3
Ratio IC50 (SW480 [20]): 2.8 - 21.3
Ratio IC50 [21]: 2.8 - 21.3
